What was measured:
Assay in all cases: NCI60 five-dose screen
Type in all cases: cell-based
ACHN = details: Homo sapiens, Renal Cancer
Description: (§1) Since all new conjugates (3a–h) had notable antiproliferative activities on several tumor cell lines in the course of the one-dose screening, they were subjected to a five-dose test. […] J. Mol. Sci. 2025, 26, 11063 10 of 10 S.3. NCI60 Screening A detailed description of the NCI screening procedures can also be found on the website of NCI [39], and in our previous work. S.3.1. One-Dose Screen All candidates were examined at first at a single high dose (10 μM) in the full NCI60 cell panel. The value reported for the one-dose test is growth relative to the no-drug control and relative to the time zero number of cells. This made possible the disclosure of both growth inhibition (numbers between 0 and 100) and lethality (numbers less than 0). For example, a value of 100 means no growth inhibition. A value of 20 would mean 80% growth inhibition. A value of 0 means no net growth over the course of the analysis. A value of −20 would mean 20% lethality. A value of −100 means all cells are dead. S.3.2. […] The human tumor cell lines of the cancer screening panel were grown in RPMI 1640 medium containing 5% fetal bovine serum and 2 mM l-glutamine. Characteristically, cells were injected in 96-well microtiter plates in 0.1 mL at plating densities ranging from 5000 to 40,000 cells/well, depending on the doubling time of individual cell lines. After cell inoculation, the microtiter plates were incubated at 37 °C, 5% carbon dioxide, 95% air, and 100% relative humidity for 24 hours before the addition of tested compounds. After 24 hours, 2 plates of each cell line were fixed in situ with Cl3COOH (TCA), to represent a measurement of the cell population for each cell line at the time of drug addition (tz). Tested compounds were solubilized in DMSO at 400-fold the desired final maximum test concentration and stored frozen before application. In the course of the drug addition, an aliquot of frozen concentrate was thawed and diluted to twice the desired final maximum test concentration with a complete medium containing 50 μg mL−1 gentamicin. Additional four, 10-fold or ½ log serial dilutions were produced to furnish a total of five drug concentrations plus control. Aliquots of 0.1 mL of these different drug dilutions were added to the appropriate microtiter wells already containing 0.1 mL of medium, resulting in the required final drug concentrations. Following drug addition, the plates were incubated at 37 °C, 5% carbon dioxide, 95% air, and 100% relative humidity for an additional 48 hours. For adherent cells, the test was finished by the addition of cold Cl3COOH. Cells were fixed in situ by the addition of 50 μL of cold 50% (w/v) Cl3COOH, and incubated at 4 °C for 1 hour. The supernatant was discarded, and the plates were washed with H2O (5×) and dried in air. Sulforhodamine B (SRB) solution (0.1 mL) at 0.4% (w/v) in 1% CH3COOH was added to each well, and plates were incubated at RT for 10 min. After staining, the unbound dye was removed by washing five times with 1% CH3COOH, and the plates were dried in the air. The bound stain is afterward solubilized with a 10 mM trizma base, and the absorbance is read on an automated plate reader at λ = 515 nm. Utilizing the seven absorbance measurements [time zero (tz), control growth (c), and test growth in the presence of the drug at the five concentration levels (ti)], the percentage growth was determined at each of the drug concentration levels. Growth inhibition (%) was calculated as: [(ti − tz)/(c − tz)] × 100, for concentrations where ti ≥ tz (1) [(ti − tz)/(tz)] × 100, for concentrations where ti < tz. (2) Three dose‒response parameters were calculated as follows. GI50 (growth inhibition of 50%) was determined from Equation (3), which is the drug concentration resulting in a 50% reduction in the net protein increase (as measured by SRB staining) in control cells in the course of the drug incubation. [(ti − tz)/(c − tz)] × 100 = 50 (3)

BT-549 = details: Homo sapiens; BT-549, Breast Cancer
Description: as §1

CAKI-1 = details: Homo sapiens; CAKI-1, Renal Cancer
Description: as §1

CCRF-CEM = details: Homo sapiens, Leukemia
Description: as §1

EKVX = details: Homo sapiens, Non-small-Cell Lung Cancer
Description: as §1

HCC-2998 = details: Homo sapiens; HCC-2998, Colon Cancer
Description: as §1

HCT-15 = details: Homo sapiens; HCT-15, Colon Cancer
Description: as §1

HOP-92 = details: Homo sapiens; HOP-92, Non-small-Cell Lung Cancer
Description: as §1

HS 578T = details: Homo sapiens, Breast Cancer
Description: as §1

MALME-3M = details: Homo sapiens, Melanoma
Description: as §1

NCI-H23 = details: Homo sapiens; NCI-H23, Non-small-Cell Lung Cancer
Description: as §1

NCI-H460 = details: Homo sapiens; NCI-H460, Non-small-Cell Lung Cancer
Description: as §1

OVCAR-5 = details: Homo sapiens; OVCAR-5, Ovarian Cancer
Description: as §1

PC-3 = details: Homo sapiens; PC-3, Prostate Cancer
Description: as §1

RXF 393 = details: Homo sapiens; RXF 393, Renal Cancer
Description: as §1

SK-MEL-2 = details: Homo sapiens; SK-MEL-2, Melanoma
Description: as §1

SNB-19 = details: Homo sapiens; SNB-19, CNS Cancer
Description: as §1

SNB-75 = details: Homo sapiens; SNB-75, CNS Cancer
Description: as §1

TK-10 = details: Homo sapiens; TK-10, Renal Cancer
Description: as §1

U251 = details: Homo sapiens, U-251; U251, CNS Cancer
Description: as §1

UACC-257 = details: Homo sapiens; UACC-257, Melanoma
Description: as §1

UO-31 = details: Homo sapiens; UO-31, Renal Cancer
Description: as §1

SMILES | GI50 (ACHN) | GI50 (BT-549) | GI50 (CAKI-1) | GI50 (CCRF-CEM) | GI50 (HCC-2998) | GI50 (HCT-15) | GI50 (HOP-92) | GI50 (HS 578T) | GI50 (MALME-3M) | GI50 (NCI-H23) | GI50 (NCI-H460) | GI50 (OVCAR-5) | GI50 (PC-3) | GI50 (SK-MEL-2) | GI50 (SNB-19) | GI50 (SNB-75) | GI50 (TK-10) | GI50 (U251) | GI50 (UACC-257) | GI50 (UO-31) | further results
O=c1cc(-c2ccccc2)oc2cc(OCCCC[P+](c3ccccc3)(c3ccccc3)c3ccccc3)cc(O)c12 [3a] | 633 nM | 257 nM | 385 nM | 335 nM | 345 nM | 628 nM | 234 nM | 306 nM | 270 nM | 302 nM | 321 nM | 1150 nM | 305 nM | 238 nM | 279 nM | 165 nM | 464 nM | 315 nM | 282 nM | 1240 nM | GI50 (EKVX): 317 nM; GI50 (RXF 393): 225 nM
Cc1ccc([P+](CCCCOc2cc(O)c3c(=O)cc(-c4ccccc4)oc3c2)(c2ccc(C)cc2)c2ccc(C)cc2)cc1 [3b] | 265 nM | 344 nM | 228 nM | 324 nM | 380 nM | 311 nM | 163 nM | 366 nM | 381 nM | 241 nM | 357 nM | 684 nM | 182 nM | 246 nM | 295 nM | 219 nM | 313 nM | 279 nM | 367 nM | 177 nM | GI50 (EKVX): 275 nM; GI50 (RXF 393): 333 nM
COc1ccc([P+](CCCCOc2cc(O)c3c(=O)cc(-c4ccccc4)oc3c2)(c2ccc(OC)cc2)c2ccc(OC)cc2)cc1 [3c] | 1280 nM | 349 nM | 1030 nM | 367 nM | 300 nM | 1550 nM | 252 nM | 332 nM | 287 nM | 423 nM | 371 nM | 852 nM | 320 nM | 301 nM | 333 nM | 344 nM | 1090 nM | 276 nM | 277 nM | 1480 nM | GI50 (EKVX): 462 nM; GI50 (RXF 393): 257 nM
O=c1cc(-c2ccccc2)oc2cc(OCCCC[P+](c3ccc(F)cc3)(c3ccc(F)cc3)c3ccc(F)cc3)cc(O)c12 [3d] | 3230 nM | 1610 nM | 1780 nM | 2310 nM | 1670 nM | 1850 nM | 1320 nM | 1980 nM | 2040 nM | 1650 nM | 2130 nM | 3000 nM | 1760 nM | 1730 nM | 1670 nM | 1670 nM | 1740 nM | 1670 nM | 1660 nM | 1850 nM | GI50 (EKVX): 2230 nM; GI50 (RXF 393): 1820 nM
O=c1cc(-c2ccccc2)oc2cc(OCCCC[P+](C3CCCCC3)(C3CCCCC3)C3CCCCC3)cc(O)c12 [3e] | 1520 nM | 709 nM | 1570 nM | 477 nM | 504 nM | 1550 nM | 211 nM | 838 nM | 397 nM | 1340 nM | 957 nM | 1300 nM | 501 nM | 1320 nM | 505 nM | 529 nM | 1430 nM | 287 nM | 267 nM | 1610 nM | GI50 (EKVX): 1060 nM; GI50 (RXF 393): 461 nM
COc1c(C)cc([P+](CCCCOc2cc(O)c3c(=O)cc(-c4ccccc4)oc3c2)(c2cc(C)c(OC)c(C)c2)c2cc(C)c(OC)c(C)c2)cc1C [3f] | 371 nM | 280 nM | 275 nM | 103 nM | 297 nM | 345 nM | 165 nM | 361 nM | 310 nM | 283 nM | 304 nM | 335 nM | 276 nM | 292 nM | 276 nM | 213 nM | 427 nM | 67 nM | 298 nM | 277 nM | GI50 (EKVX): 309 nM; GI50 (RXF 393): 191 nM
Cc1ccccc1[P+](CCCCOc1cc(O)c2c(=O)cc(-c3ccccc3)oc2c1)(c1ccccc1C)c1ccccc1C [3g] | 569 nM | 291 nM | 309 nM | 242 nM | 239 nM | 1410 nM | 255 nM | 232 nM | 353 nM | 243 nM | 243 nM | 1720 nM | 308 nM | 194 nM | 353 nM | 274 nM | 414 nM | 225 nM | 261 nM | 1770 nM | –
O=c1cc(-c2ccccc2)oc2cc(OCCCC[P+](c3ccccc3)(c3ccccc3)c3ccccn3)cc(O)c12 [3h] | 1640 nM | 293 nM | 1540 nM | 334 nM | 445 nM | 1580 nM | 346 nM | 1130 nM | 594 nM | 776 nM | 801 nM | 1440 nM | 572 nM | 758 nM | 524 nM | 572 nM | 1690 nM | 335 nM | 298 nM | 1540 nM | GI50 (EKVX): 1120 nM; GI50 (RXF 393): 608 nM

Source: paper PMC12652692, “Synthesis and In Vitro Anticancer Evaluation of Novel Phosphonium Derivatives of Chrysin” (International Journal of Molecular Sciences, 2025)
